Common to all, as to type: in vivo, rat
Test [1] relates to fibronectin gene expression. Put plainly: Expression of fibrotic marker gene fibronectin in lung following bleomycin-induced pulmonary fibrosis (real time PCR). The note with it: bleomycin-treated rats, 50 mg/kg daily, day 21, versus bleomycin + vehicle; FIG. 3. As for the experimental part: (§1) All experiments were performed in accordance with German guidelines for animal welfare, performed by persons certified to work with animals and approved by the responsible authorities. Male Wistar rats were intratracheally injected with Bleomycin sulfate (10 U/kg body weight in 300 μl saline) or saline alone (saline control) using a catheter (0.5 mm internal diameter, 1.0 mm external diameter) through the nasal passage, following exposure to the anaesthetic Isofluorane for 5 minutes. The following day, the rats were orally treated with Example A (compound (134)) or saline suspended in 1 ml 0.1% Natrosol. Control rats were administered 1 ml 0.1% Natrosol (vehicle control).
(§2) 21 days following bleomycin instillation, the rats were killed with a lethal intraperitoneal injection of Narcoren™ (Pentobarbital Sodium, Rhone Merieux). The lungs were then removed, blotted dry and half was snap frozen in liquid nitrogen and stored at −80° C. The other half was fixed in 4% formalin for subsequent paraffin embedding and histology.
(§3) (B) Effect of a representative compound on expression of fibrotic marker genes following bleomycin-induced pulmonary fibrosis.
(§4) One part of the frozen lung tissue dedicated to investigation of gene expression was cut into small pieces using a sterile scalpel blade. […] The concentration of each sample was then measured using a spectrophotometer. […]

Test [2] has as its system procollagen I gene expression. Put plainly: Expression of fibrotic marker gene procollagen I in lung following bleomycin-induced pulmonary fibrosis (real time PCR). The note with it: bleomycin-treated rats, 50 mg/kg daily, day 21, versus bleomycin + vehicle; FIG. 2. The protocol:
as §1, §2, §3, §4
In general terms: Quantitative PCR measures a nucleic acid by following its amplification.

Test [3] deals with bleomycin-induced pulmonary fibrosis. Put plainly: Lung morphology following bleomycin-induced pulmonary fibrosis (histology, Masson's Trichrome collagen staining). As to conditions: male Wistar rats, bleomycin 10 U/kg intratracheally; 50 mg/kg daily orally, days 1-21; histology 21 days after instillation; FIG. 1C. The protocol:
(A) Effect of a representative compound on lung morphology following bleomycin-induced pulmonary fibrosis. All experiments were performed in accordance with German guidelines for animal welfare, performed by persons certified to work with animals and approved by the responsible authorities. Male Wistar rats were intratracheally injected with Bleomycin sulfate (10 U/kg body weight in 300 μl saline) or saline alone (saline control) using a catheter (0.5 mm internal diameter, 1.0 mm external diameter) through the nasal passage, following exposure to the anaesthetic Isofluorane for 5 minutes. The following day, the rats were orally treated with Example A (compound (134)) or saline suspended in 1 ml 0.1% Natrosol. Control rats were administered 1 ml 0.1% Natrosol (vehicle control). [table] 21 days following bleomycin instillation, the rats were killed with a lethal intraperitoneal injection of Narcoren™ (Pentobarbital Sodium, Rhone Merieux). The lungs were then removed, blotted dry and half was snap frozen in liquid nitrogen and stored at −80° C. The other half was fixed in 4% formalin for subsequent paraffin embedding and histology. The lung tissues fixed in 4% formalin were embedded into paraffin and 5 μm sections were cut using a microtome (Leica SM200R) and placed on poly-L-lysine coated slides. […] Collagen deposition was assessed using Masson's Trichrome staining.

For the molecule `CN(C)Cc1ccc(N/C(=C2\C(=O)Nc3cc(F)ccc32)c2ccc(CCC(=O)O)cc2)cc1` [Example A, 3-Z-[1-(4-dimethylaminomethylanilino)-1-(4-(2-carboxyethyl)phenyl)methylene]-6-fluoro-2-indolinone], the “fibronectin gene expression in lung (normalized to 18S)” value in test [1] is on record as “significant (p≦0.0001) inhibition”. For the same molecule, in test [2], the “procollagen I gene expression in lung (normalized to 18S)” value is recorded as “significant (p≦0.0001) inhibition”. In test [3], the “fibroblast infiltration or extracellular matrix deposition in lung” value was “little or no fibroblast infiltration or extracellular matrix deposition has occurred” and the “lung fibrosis (lung morphology, collagen deposition staining)” value is listed as “consistent, nearly complete reversal of lung fibrosis”.

For the origin of these results see patent publication US20140128409A1, “MEDICAMENTS FOR THE TREATMENT OR PREVENTION OF FIBROTIC DISEASES” (BOEHRINGER INGELHEIM INTERNATIONAL GMBH, priority 2004, published 2014).
